The values below come from patent US20030124585A1, “Type II gonadotropin-releasing hormone receptor and polynucleotides encoding therefor” (Medical Research Council, priority 2000, published 2003).

Assay [1] deals with T1, human Type I GnRH receptor (Homo sapiens, UniProt P30968).
T1 construct: expressed in transfected cells; host or cells: COS-7 cells, transient transfection (Superfect)
T1 sequence (P30968 1-328): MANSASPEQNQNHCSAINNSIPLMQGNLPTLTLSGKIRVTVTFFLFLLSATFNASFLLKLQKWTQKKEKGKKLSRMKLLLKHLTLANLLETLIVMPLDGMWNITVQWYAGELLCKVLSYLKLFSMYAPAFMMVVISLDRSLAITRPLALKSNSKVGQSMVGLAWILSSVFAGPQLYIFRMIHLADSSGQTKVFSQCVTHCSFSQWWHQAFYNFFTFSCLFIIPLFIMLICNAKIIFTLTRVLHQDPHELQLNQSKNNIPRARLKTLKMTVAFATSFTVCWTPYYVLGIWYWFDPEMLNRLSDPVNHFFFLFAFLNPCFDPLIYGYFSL
The assay is described as follows: Receptor binding, competition with 125I-[His5,D-Tyr6]GnRH, transfected COS-7 cells. The conditions noted are these: for IC50: Table 1, s.e.m., n=3-6, read-out: Ligand binding (IC50) Human Type I. How it is done: (§1) Cell culture and transfection. COS-7 cells were cultured as previously described (20, 21). Transient transfections of COS-7 cells with human Type I GnRH receptor or marmoset Type II GnRH receptor, along with myc-tagged ERK2, JNK and p38α constructs were performed using Superfect (Qiagen) according to the manufacturer's protocol. All assays described were performed 48 h post transfection.
(§2) Receptor binding and inositol phosphate production.

For assay [2], the system named is Marmoset Type II GnRH-R. The assay is described as above. The conditions noted are these: Type II versus Type I receptor; for Selectivity of the Type II receptor for the ligand (in words): binding, COS-7 cells. The procedure:
as §1, §2

In assay [3] the target is T2, Marmoset Type II GnRH-R (Callithrix jacchus, UniProt Q95MG6).
T2 construct: Full length marmoset Type II GnRH receptor was produced by PCR; expressed in transfected cells; host or cells: COS-7 cells, transient transfection (Superfect), plasmid pcDNA3.1+
T2 sequence (Q95MG6 1-380): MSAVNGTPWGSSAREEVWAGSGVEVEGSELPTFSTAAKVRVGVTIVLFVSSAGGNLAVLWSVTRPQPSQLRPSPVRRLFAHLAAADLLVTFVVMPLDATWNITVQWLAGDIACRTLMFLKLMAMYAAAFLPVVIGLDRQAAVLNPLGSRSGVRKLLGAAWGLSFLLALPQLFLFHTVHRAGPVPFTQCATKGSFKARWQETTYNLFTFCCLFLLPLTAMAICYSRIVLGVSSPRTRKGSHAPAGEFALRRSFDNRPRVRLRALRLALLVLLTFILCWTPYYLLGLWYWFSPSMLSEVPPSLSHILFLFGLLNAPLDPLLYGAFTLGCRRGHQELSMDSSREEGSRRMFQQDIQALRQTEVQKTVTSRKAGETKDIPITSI
Described as above. The following applies: for IC50: s.e.m. The procedure:
as §1, §2

Assay [4] has as its target T3, marmoset Type II GnRH receptor (Callithrix jacchus, UniProt Q95MG6).
T3 construct: Full length marmoset Type II GnRH receptor was produced by PCR; expressed in transfected cells; host or cells: COS-7 cells, transient transfection (Superfect), plasmid pcDNA3.1+
T3 sequence (Q95MG6 1-380): T2 sequence (Q95MG6 1-380)
Put plainly: Phospho-MAP kinase assay, p38α activation in transfected COS-7 cells. Format: cell-based. The following applies: 100 nM, FIG. 8c. How it is done:
as §1
(§3) Phospho-MAP kinase assay. […] After ligand stimulation, COS-7 cells were prepared for immunoprecipitation (23). Co-transfected myc-tagged MAP kinase constructs were immunoprecipitated from cell lysates by overnight incubation with myc-agarose slurry (Santa Cruz), washed, an equal volume of 2×Laemmli sample buffer added, resolved by SDS-PAGE and electrotransferred to PVDF membrane (NEN Life Sciences). Activated MAP kinase was detected using anti-phospho-ERK/JNK/p38a-kinase specific antisera (New England Biolabs), visualised by enzyme-linked chemifluorescence (Amersham-Pharmacia) and quantified using a phosphorimager. The degree of phosphorylated MAP kinase was normalised to the amount of unphosphorylated MAP kinase detected with specific antisera.

A further assay deals with Type I receptor. The conditions noted are these: cited from earlier work.
The test system of the next assay is FSH and LH secretion. The assay is described as follows: Stimulation of LH and FSH in sheep (Soay ram model). Format: in vivo. The following applies: 10 μg dose, intravenous bolus, n=8. How it is done:
Stimulation of LH and FSH in sheep. […] The same animals (n=8) were used on the two occasions. The GnRHs were administered at doses of 250 ng/ram and 10 μg/ram in a cross-over design with a week between treatments to permit full recovery. The peptides were dissolved in 1 ml of 0.9% saline and given as an intravenous bolus. Blood samples were collected every 10 min, from 20 min before, until 2 h after the treatments and assayed by specific radioimmunoassays (24). The FSH and LH responses to the GnRH agonists were calculated as delta responses (2 h mean hormone concentration post treatment minus 20 min mean pre-treatment hormone concentration). […] This was assessed for each animal and then for the group (mean±SEM, n=8), under both LD and SD.

The target of assay [5] is T1, human Type I GnRH receptor. Put plainly: Total inositol phosphate production in transfected COS-7 cells. Format: cell-based. The conditions noted are these: for EC50: Table 1, s.e.m., n=3-6, read-out: InsP production (EC50) Human Type I. How it is done:
as §1, §2

Assay [6] concerns the target T2, Marmoset Type II GnRH-R. The description is as above. The assay is classed as cell-based. The conditions noted are these: for EC50: s.e.m. The procedure:
as §1, §2

In assay [7] the target is T1, human Type I GnRH receptor. Put plainly: Phospho-MAP kinase assay, ERK2 activation in transfected COS-7 cells. Format: cell-based. The conditions noted are these: FIG. 8a. The procedure:
as §1, §3

Setting [8] is: FIG. 4, COS-7 cells, n=2, read-out: IC50, heterologous competition binding of 125I-[His5,D-Tyr6]GnRH.
[9] abbreviates: Table 1, n=3-6, read-out: Ligand binding (IC50) Marmoset Type II.
The mark [10] stands for this setting: FIG. 5, COS-7 cells, n=2, read-out: EC50, total inositol phosphate production.
[11] abbreviates: Table 1, n=3-6, read-out: InsP production (EC50) Marmoset Type II.

Where two headings read alike, the source gives them in different places. Square brackets hold non-standard residues; d marks the D form. Peptide text beside a SMILES is read from it. pGlu = O=C1CC[C@@H](C(=O)O)N1

In general, IC50 refers to the point on the concentration scale where inhibition reaches its midpoint. One may read the EC50 as the concentration at which the effect is half-maximal.

In the case of `NC(=O)CNC(=O)[C@@H]1CCCN1C(=O)[C@H](Cc1ccc(O)cc1)NC(=O)[C@H](Cc1c[nH]c2ccccc12)NC(=O)CNC(=O)[C@H](Cc1c[nH]cn1)NC(=O)[C@H](CO)NC(=O)[C@H](Cc1c[nH]c2ccccc12)NC(=O)[C@H](Cc1c[nH]cn1)NC(=O)[C@@H]1CCC(=O)N1` [GnRH II, [His^5,Trp^7,Tyr^8]GnRH I] ([pGlu]HWSHGWYPG-NH2; C-terminus assumed), in assay [1] (COS-7 cells), the “Receptor binding activity as percent of mammalian GnRH I at the Type I receptor” value is given as 10%. For the same compound, the “Affinity for the Type II receptor relative to the Type I receptor” value with Marmoset Type II GnRH-R [2] amounted to 24 fold. For the same compound, the “Selectivity of the Type II receptor for the ligand (in words)” value (from here on “Selectivity of the Type II receptor”) in the assay on Marmoset Type II GnRH-R [2] was “high selectivity”. Also, the “Receptor binding activity relative to mammalian GnRH I at the Type II receptor” value at Marmoset Type II GnRH-R [3] (COS-7 cells) was found to be 40 fold. Moreover, the IC50 stood at 1.3 ± 0.2 nM on Marmoset Type II GnRH-R [3] (setting [8]) and 1.07 ± 0.04 nM at Marmoset Type II GnRH-R [3] (setting [9]). For the same compound, the “Activation of p38α MAP kinase (in words)” value in assay [4] was “selective and time-dependent activation”. In the assay on Type I receptor, the “Affinity and potency as percent of mammalian GnRH I at the Type I receptor” value is no more than 20%. Also, the “Mean ratio of FSH to LH secretion relative to that induced by mammalian GnRH I” value came to 2.14±0.29 times in the assay with FSH and LH secretion (sexually active rams); 2.02±0.34 times in the assay on FSH and LH secretion (sexually quiescent rams). Also, in assay [5] (COS-7 cells), the “Inositol phosphate production activity as percent of mammalian GnRH I at the Type I receptor” value is 9%. The “Inositol phosphate production activity relative to mammalian GnRH I at the Type II receptor” value at Marmoset Type II GnRH-R [6] (COS-7 cells) is given as 90 fold. In addition, the values for the half-maximal effective concentration (EC50) on Marmoset Type II GnRH-R [6] (setting [10]) and at Marmoset Type II GnRH-R [6] (setting [11]) were 0.46 ± 0.12 nM and 0.45 ± 0.05 nM, respectively.

As for `CC(C)C[C@H](NC(=O)CNC(=O)[C@H](Cc1ccc(O)cc1)NC(=O)[C@H](CO)NC(=O)[C@H](Cc1c[nH]c2ccccc12)NC(=O)[C@H](Cc1c[nH]cn1)NC(=O)[C@@H]1CCC(=O)N1)C(=O)N[C@@H](CCCNC(=N)N)C(=O)N1CCC[C@H]1C(=O)NCC(N)=O` [GnRH I], the IC50 on Marmoset Type II GnRH-R [3] (setting [8]) turned out to be 51.7 ± 1.9 nM; at Marmoset Type II GnRH-R [3] (setting [9]) it was 42.6 ± 3.19 nM. The results for the EC50 on Marmoset Type II GnRH-R [6] (setting [10]) and on Marmoset Type II GnRH-R [6] (setting [11]) were 33.2 ± 6.3 nM and 40.5 ± 4.43 nM, respectively. The “Activation of ERK2 (in words)” value in [7] is “considerably more potent than GnRH II”.

In the case of `N=C(N)NCCC[C@@H](NC(=O)[C@H](Cc1c[nH]cn1)NC(=O)[C@H](CO)NC(=O)[C@H](Cc1c[nH]c2ccccc12)NC(=O)[C@H](Cc1c[nH]cn1)NC(=O)[C@@H]1CCC(=O)N1)C(=O)N[C@@H](Cc1c[nH]c2ccccc12)C(=O)N[C@@H](Cc1ccc(O)cc1)C(=O)N1CCC[C@H]1C(=O)NCC(N)=O` [[D-Arg^6] GnRH II, [D-Arg^6]GnRH II] ([pGlu]HWSH[dR]WYPG-NH2; C-terminus assumed), the IC50 in assay [1] is 11.9 ± 0.35 nM; at Marmoset Type II GnRH-R [3] (setting [9]), 3.34 ± 0.06 nM. Moreover, the “Selectivity of the Type II receptor” value with Marmoset Type II GnRH-R [2] is “more selective”. Moreover, the EC50 is 3.8 ± 0.71 nM in assay [5], 1.1 ± 0.23 nM at Marmoset Type II GnRH-R [6] (setting [10]) and 2.39 ± 0.64 nM on Marmoset Type II GnRH-R [6] (setting [11]).

As to `CC(C)C[C@H](NC(=O)[C@H](Cc1c[nH]c2ccccc12)NC(=O)CNC(=O)[C@H](Cc1ccc(O)cc1)NC(=O)[C@H](CO)NC(=O)[C@H](Cc1c[nH]c2ccccc12)NC(=O)[C@H](Cc1c[nH]cn1)NC(=O)[C@@H]1CCC(=O)N1)C(=O)N1CCC[C@H]1C(=O)NCC(N)=O` [sGnRH, [Trp^7,Leu^8]GnRH I] ([pGlu]HWSYGWLPG-NH2; C-terminus assumed), the IC50 is 244 ± 23.6 nM in assay [1], 9.8 ± 1.4 nM at Marmoset Type II GnRH-R [3] (setting [8]) and 9.48 ± 2.17 nM on Marmoset Type II GnRH-R [3] (setting [9]). Also, in the assay on Marmoset Type II GnRH-R [2], the “Selectivity of the Type II receptor” value is listed as “more selective”. Besides, the EC50 was determined as 9.62 ± 3.5 nM in [5], 8.7 ± 0.5 nM on Marmoset Type II GnRH-R [6] (setting [10]) and 5.99 ± 0.91 nM at Marmoset Type II GnRH-R [6] (setting [11]).
